Laboratory results reported in patent US20170291905A1, “ARGININE […] INHIBITORS AND USES THEREOF” (Epizyme, Inc., priority 2014, published 2017).
pIC50: −log10 of the molar value.

What was measured:
[1] = biological target: full-length human PRMT6 (Flag- and His-tagged) (Homo sapiens, UniProt Q96LA8); assay: PRMT6 biochemical assay (3H-SAM Flashplate, histone H4 36-50 K44me1 peptide); settings: 1 nM PRMT6, 30 min preincubation, 75 nM peptide
Source text: (§1) S-adenosylmethionine (SAM), S-adenosylhomocysteine (SAH), bicine, Tween20, dimethylsulfoxide (DMSO), bovine skin gelatin (BSG), sodium butyrate and Tris(2-carboxyethyl)phosphine hydrochloride solution (TCEP) were purchased from Sigma-Aldrich at the highest level of purity possible. ^3H-SAM was purchase from American Radiolabeled Chemicals with a specific activity of 80 Ci/mmol. 384-well streptavidin Flashplates were purchased from PerkinElmer.
Peptide representative of human histone H4 residues 36-50 was synthesized with an N-terminal linker-affinity tag motif and a C-terminal amide cap by 21st Century Biochemicals. The peptide was purified by high-performance liquid chromatography (HPLC) to greater than 95% purity and confirmed by liquid chromatography mass spectrometry (LC-MS). The sequence was Biot-Ahx-[…]-amide and contained a monomethylated lysine at position 44 (SEQ ID NO.:5).
Full-length human PRMT6 (NM_018137.2) transcript clone was amplified from an HEK 293 cDNA library, incorporating a flanking 5′ sequence encoding a FLAG tag ([…]) (SEQ ID NO.:6) fused directly to Ser 2 of PRMT6 and a 3′ sequence encoding a hexa His sequence (HHHHHH) (SEQ ID NO.: 17) fused directly to Asp 375. The amplified gene was subcloned into pFastBacMam (Viva Biotech).
Recombinant baculovirus were generated according to Bac-to-Bac kit instructions (Life Technologies). […] Infections were carried out at 37° C. for 48 hours, harvested by centrifugation, and stored at −80° C. for purification.
Column was washed with 20 mM imidazole in the same buffer and Flag-PRMT6-His was eluted with 150 mM imidazole. Pooled fractions were dialysed against buffer Ni-A and further purified by anti-flag M2 affinity chromatography. Flag-PRMT6-His was eluted with 200 ug/ml FLAG peptide in the same buffer. Pooled fractions were dialysed in 20 mM Tris, 150 mM NaCl, 10% glycerol and 5 mM β-mercaptoethanol, pH 7.8. The purity of recovered protein was 95%.
General Procedure for PRMT6 Enzyme Assays on Peptide Substrates.
The assays were all performed in a buffer consisting of 20 mM Bicine (pH=7.6), 1 mM TCEP, 0.005% BSG, and 0.002% Tween 20, prepared on the day of use. Compounds in 100% DMSO (1 ul) were spotted into a polypropylene 384-well V-bottom plates (Greiner) using a Platemate Plus outfitted with a 384-channel head (Thermo Scientific). DMSO (1 ul) was added to Columns 11, 12, 23, 24, rows A-H for the maximum signal control and 1 ul of SAH, a known product and inhibitor of PRMT6, was added to columns 11, 12, 23, 24, rows I-P for the minimum signal control. A cocktail (40 ul) containing the PRMT6 enzyme was added by Multidrop Combi (Thermo-Fisher). The compounds were allowed to incubate with PRMT6 for 30 min at room temperature, then a cocktail (10 ul) containing SAM and peptide was added to initiate the reaction (final volume=51 ul). The final concentrations of the components were as follows: PRMT6 was 1 nM, ^3H-SAM was 200 nM, non-radiolabeled SAM was 250 nM, peptide was 75 nM, SAH in the minimum signal control wells was 1 mM, and the DMSO concentration was 2%. The assays were stopped by the addition of non-radiolabeled SAM (10 ul) to a final concentration of 400 uM, which dilutes the ^3H-SAM to a level where its incorporation into the peptide substrate is no longer detectable. 50 ul of the reaction in the 384-well polypropylene plate was then transferred to a 384-well Flashplate and the biotinylated peptides were allowed to bind to the streptavidin surface for at least 1 hour before being washed once with 0.1% Tween20 in a Biotek ELx405 plate washer. The plates were then read in a PerkinElmer TopCount plate reader to measure the quantity of ^3H-labeled peptide bound to the Flashplate surface, measured as disintegrations per minute (dpm) or alternatively, referred to as counts per minute (cpm).
(§2) Where dpm=disintegrations per minute, cmpd=signal in assay well, and min and max are the respective minimum and maximum signal controls. […]

[2] = biological target: T1, full-length human PRMT1 isoform 1 (GST-tagged) (Homo sapiens, UniProt Q99873); assay: PRMT1 biochemical assay (3H-SAM Flashplate, histone H4 36-50 peptide); settings: 0.5 nM PRMT1, 30 min preincubation, 20 nM peptide
T1 construct: GST-tagged PRMT1 was eluted with 50 mM Tris, 2 mM glutathione, pH 7.8, dialysed in buffer A and concentrated; made in house; host or cells: High Five insect cells (baculovirus)
Source text: as §1, with “(BSG),” for “(BSG), sodium butyrate”
Peptide representative of human histone H4 residues 36-50 was synthesized with an N-terminal linker-affinity tag motif and a C-terminal amide cap by 21st Century Biochemicals. The peptide was purified by high-performance liquid chromatography (HPLC) to greater than 95% purity and confirmed by liquid chromatography mass spectrometry (LC-MS). The sequence was Biot-Ahx-[…]-amide (SEQ ID NO.:1).
Full-length human PRMT1 isoform 1 (NM_001536.5) transcript clone was amplified from an HEK 293 cDNA library, incorporating flanking 5′ sequence encoding a FLAG tag ([…]) (SEQ ID NO.:2) fused directly to Met 1 of PRMT1. The amplified gene was subcloned into pFastBacI (Life Technologies) modified to encode an N-terminal GST tag and a TEV cleavage sequence
Recombinant baculovirus were generated according to Bac-to-Bac kit instructions (Life Technologies). Protein over-expression was accomplished by infecting exponentially growing High Five insect cell culture at 1.5×10^6 cell/ml with 1:100 ratio of virus. Infections were carried out at 27° C. for 48 hours, harvested by centrifugation, and stored at −80° C. for purification.
GST-tagged PRMT1 was eluted with 50 mM Tris, 2 mM glutathione, pH 7.8, dialysed in buffer A and concentrated to 1 mg/mL. The purity of recovered protein was 73%. Reference: Wasilko, D. J. and S. E. Lee: “TIPS: titerless infected-cells preservation and scale-up” Bioprocess J., 5 (2006), pp. 29-32.
General Procedure for PRMT1 Enzyme Assays on Peptide Substrates.
The assays were all performed in a buffer consisting of 20 mM Bicine (pH=7.6), 1 mM TCEP, 0.005% BSG, and 0.002% Tween 20, prepared on the day of use. Compounds in 100% DMSO (1 ul) were spotted into a polypropylene 384-well V-bottom plates (Greiner) using a Platemate Plus outfitted with a 384-channel head (Thermo Scientific). DMSO (1 ul) was added to Columns 11, 12, 23, 24, rows A-H for the maximum signal control and 1 ul of SAH, a known product and inhibitor of PRMT1, was added to columns 11, 12, 23, 24, rows I-P for the minimum signal control. A cocktail (40 ul) containing the PRMT1 enzyme was added by Multidrop Combi (Thermo-Fisher). The compounds were allowed to incubate with PRMT1 for 30 min at room temperature, then a cocktail (10 ul) containing SAM and peptide was added to initiate the reaction (final volume=51 ul). The final concentrations of the components were as follows: PRMT1 was 0.5 nM, ^3H-SAM was 200 nM, non-radiolabeled SAM was 1.5 uM, peptide was 20 nM, SAH in the minimum signal control wells was 1 mM, and the DMSO concentration was 2%. The assays were stopped by the addition of non-radiolabeled SAM (10 ul) to a final concentration of 300 uM, which dilutes the ^3H-SAM to a level where its incorporation into the peptide substrate is no longer detectable. 50 ul of the reaction in the 384-well polypropylene plate was then transferred to a 384-well Flashplate and the biotinylated peptides were allowed to bind to the streptavidin surface for at least 1 hour before being washed once with 0.1% Tween20 in a Biotek ELx405 plate washer. The plates were then read in a PerkinElmer TopCount plate reader to measure the quantity of ^3H-labeled peptide bound to the Flashplate surface, measured as disintegrations per minute (dpm) or alternatively, referred to as counts per minute (cpm).
as §2

T1 sequence (Q99873 with tags, fused parts or gaps): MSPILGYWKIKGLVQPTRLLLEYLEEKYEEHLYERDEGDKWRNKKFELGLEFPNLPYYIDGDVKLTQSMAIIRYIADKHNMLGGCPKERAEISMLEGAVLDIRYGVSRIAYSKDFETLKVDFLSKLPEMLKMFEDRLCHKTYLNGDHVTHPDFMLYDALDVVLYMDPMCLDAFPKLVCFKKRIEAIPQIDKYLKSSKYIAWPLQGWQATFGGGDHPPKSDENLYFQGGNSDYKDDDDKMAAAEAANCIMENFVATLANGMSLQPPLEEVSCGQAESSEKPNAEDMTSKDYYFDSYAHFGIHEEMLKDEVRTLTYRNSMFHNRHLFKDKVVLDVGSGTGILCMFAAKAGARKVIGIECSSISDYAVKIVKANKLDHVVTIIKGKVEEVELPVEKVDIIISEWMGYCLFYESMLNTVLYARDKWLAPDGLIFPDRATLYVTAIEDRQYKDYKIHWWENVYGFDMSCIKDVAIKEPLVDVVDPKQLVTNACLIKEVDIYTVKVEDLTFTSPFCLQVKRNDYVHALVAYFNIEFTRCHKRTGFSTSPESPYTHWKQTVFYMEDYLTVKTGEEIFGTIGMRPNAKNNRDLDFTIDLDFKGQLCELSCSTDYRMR
Sequence of full-length human PRMT6 (Flag- and His-tagged) (Q96LA8 with tags, fused parts or gaps): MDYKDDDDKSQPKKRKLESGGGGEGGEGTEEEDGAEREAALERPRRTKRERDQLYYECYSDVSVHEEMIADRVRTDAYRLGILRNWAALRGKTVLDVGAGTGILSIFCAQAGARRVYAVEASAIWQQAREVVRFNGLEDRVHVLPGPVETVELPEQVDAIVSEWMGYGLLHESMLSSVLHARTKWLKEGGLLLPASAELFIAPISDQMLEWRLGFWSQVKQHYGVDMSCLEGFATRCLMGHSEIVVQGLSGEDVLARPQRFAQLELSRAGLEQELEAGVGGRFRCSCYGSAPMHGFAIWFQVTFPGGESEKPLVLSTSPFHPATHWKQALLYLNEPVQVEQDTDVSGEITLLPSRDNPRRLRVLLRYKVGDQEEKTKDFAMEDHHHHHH

SMILES | pIC50 [1] | pIC50 [2]
CNCCN(C)Cc1c([C@H]2CC[C@@]3(CC2)CC(C)(C)CO3)nnn1C [compound 53] | < 5.00 | 5.23
CNCCN(C)Cc1c([C@H]2CC[C@]3(CC2)CC(C)(C)CO3)nnn1C [compound 54] | 5.00 | 5.03
CN(CCN)Cc1cn(C)nc1[C@H]1CC[C@@]2(CC1)CC(C)(C)CO2 [compound 55] | 6.72 | 8.14
CN(CCN)Cc1cn(C)nc1[C@H]1CC[C@]2(CC1)CC(C)(C)CO2 [compound 56] | 6.07 | 7.51
